Experimental data reported in ChEMBL document CHEMBL6177971, “Iterative Optimization Yields Stapled Peptides with Superior Pharmacokinetics and Potency for Renal Fibrosis Treatment” (J Med Chem, 2025).
pKd: −log10 of the molar value. Calls of active or inactive are those of the source. The calls are words filed in the database; no cut-off is given here.

What was measured:
[1] = MRT in male C57BL/6J mouse at 2.8 mg/kg, iv measured for 3 to 240 mins by UHPLC-HRMS analysis; format: ADME, organism-based; details: in vivo, time 3-240 min
[2] = system: Mus musculus; assay: Anti-fibrotic activity in C57BL/6J mouse model of unilateral ureteral obstruction assessed as decrease in renal alpha-SMA […] level administered intraperitoneally every day for 7 days by IHC analysis; format: functional, organism-based; details: dose 0.05-1.25 mg/kg, route ip, time 7.0 day
[3] = Volume of distribution in male C57BL/6J mouse at 2.8 mg/kg, iv measured for 3 to 240 mins by UHPLC-HRMS analysis; format: ADME, organism-based; details: in vivo, time 3-240 min
[4] = system: Mus musculus; assay: Anti-fibrotic activity in C57BL/6J mouse model of unilateral ureteral obstruction assessed as decrease in renal fibrosis at 0.05 to 1.25 mg/kg, ip administered every day for 7 days by H and E staining based analysis; format: functional, organism-based; details: dose 0.05-1.25 mg/kg, time 7.0 day
[5] = Half life in male C57BL/6J mouse at 2.8 mg/kg, iv measured for 3 to 240 mins by UHPLC-HRMS analysis; format: ADME, organism-based; details: in vivo, time 3-240 min
[6] = system: NIH3T3; assay: Inhibition of myofibroblast activation in TGF-beta1-induced EMT in mouse NIH3T3 cells assessed as decrease in alpha-SMA level incubated for 48 hrs by Western blot analysis; format: functional, cell-based; details: dose 1-10 µM
[7] = system: Mus musculus; assay: Anti-fibrotic activity in C57BL/6J mouse model of unilateral ureteral obstruction assessed as decrease in alpha-SMA mRNA level at 0.25 mg/kg, ip administered every day for 7 days by qPCR analysis; format: functional, organism-based; details: time 7.0 day
[8] = system: HK-2; assay: Inhibition of myofibroblast activation in TGF-beta1-induced EMT in human HK-2 cells assessed as decrease in collagen I level at 1 to 5 uM incubated for 24 hrs by Western blot analysis; format: functional, cell-based; details: dose 1-5 µM
[9] = system: NIH3T3; assay: Inhibition of myofibroblast activation in TGF-beta1-induced EMT in mouse NIH3T3 cells assessed as decrease in MMP2 mRNA level at 1 to 2 uM incubated for 48 hrs by qPCR analysis; format: functional, cell-based; details: dose 1-2 µM
[10] = system: Mus musculus; assay: Anti-fibrotic activity in C57BL/6J mouse model of unilateral ureteral obstruction assessed as decrease in kidney inflammation at 0.05 to 1.25 mg/kg, ip administered every day for 7 days; format: functional, organism-based; details: dose 0.05-1.25 mg/kg, time 7.0 day
[11] = system: NIH3T3; assay: Inhibition of myofibroblast activation in TGF-beta1-induced EMT in mouse NIH3T3 cells assessed as decrease in collagen I mRNA level at 1 to 2 uM incubated for 48 hrs by qPCR analysis; format: functional, cell-based; details: dose 1-2 µM
[12] = system: HK-2; assay: Inhibition of myofibroblast activation in TGF-beta1-induced EMT in human HK-2 cells assessed as decrease in MMP2 mRNA level at 1 to 5 uM incubated for 24 hrs by qPCR analysis; format: functional, cell-based; details: dose 1-5 µM
[13] = system: Mus musculus; assay: Anti-fibrotic activity in C57BL/6J mouse model of unilateral ureteral obstruction assessed as decrease in collagen I level at 0.25 mg/kg, ip administered every day for 7 days by Western blot analysis; format: functional, organism-based; details: time 7.0 day
[14] = system: HK-2; assay: Inhibition of myofibroblast activation in TGF-beta1-induced EMT in human HK-2 cells assessed as decrease in alpha-SMA level at 1 to 10 uM incubated for 24 hrs by Western blot analysis; format: functional, cell-based; details: dose 1-10 µM
[15] = system: Mus musculus; assay: Anti-fibrotic activity in C57BL/6J mouse model of unilateral ureteral obstruction assessed as decrease in TGF-beta1 mRNA level at 0.25 mg/kg, ip administered every day for 7 days by qPCR analysis; format: functional, organism-based; details: time 7.0 day
[16] = system: NIH3T3; assay: Inhibition of TGF-beta1-induced EMT in mouse NIH3T3 cells assessed as decrease in fibronectin level at 10 uM incubated for 48 hrs by Western blot analysis; format: functional, cell-based
[17] = system: HK-2; assay: Inhibition of myofibroblast activation in TGF-beta1-induced EMT in human HK-2 cells assessed as decrease in fibronectin level at 1 to 10 uM incubated for 24 hrs by Western blot analysis; format: functional, cell-based; details: dose 1-10 µM
[18] = system: NIH3T3; assay: Inhibition of myofibroblast activation in TGF-beta1-induced EMT in mouse NIH3T3 cells assessed as decrease in fibronectin level incubated for 48 hrs by Western blot analysis; format: functional, cell-based; details: dose 1-10 µM
[19] = system: NIH3T3; assay: Cytotoxicity against mouse NIH3T3 cells assessed as inhibition of cell viability at 10 to 40 uM incubated for 48 hrs by CCK8 assay; format: toxicity, cell-based; details: nih3t3, 48 h, dose 10-40 µM
[20] = biological target: Albumin (Bos taurus, UniProt P02769); assay: Binding affinity to bovine serum albumin assessed as dissociation constant by ITC analysis; format: ADME
[21] = system: HK-2; assay: Inhibition of myofibroblast activation in TGF-beta1-induced EMT in human HK-2 cells assessed as decrease in COL1A1 mRNA level at 1 to 5 uM incubated for 24 hrs by qPCR analysis; format: functional, cell-based; details: dose 1-5 µM
[22] = Half life of compound; format: physicochemical
[23] = system: HK-2; assay: Inhibition of myofibroblast activation in TGF-beta1-induced EMT in human HK-2 cells assessed as decrease in FN-1 mRNA level at 1 to 5 uM incubated for 24 hrs by qPCR analysis; format: functional, cell-based; details: dose 1-5 µM
[24] = system: HK-2; assay: Inhibition of myofibroblast activation in TGF-beta1-induced EMT in human HK-2 cells assessed as increase in E-cadherin level at 1 to 5 uM incubated for 24 hrs by Western blot analysis; format: functional, cell-based; details: dose 1-5 µM
[25] = system: Mus musculus; assay: Anti-fibrotic activity in C57BL/6J mouse model of unilateral ureteral obstruction assessed as decrease in fibronectin level at 0.25 mg/kg, ip administered every day for 7 days by Western blot analysis; format: functional, organism-based; details: time 7.0 day

Sequence of Albumin (P02769 whole entry): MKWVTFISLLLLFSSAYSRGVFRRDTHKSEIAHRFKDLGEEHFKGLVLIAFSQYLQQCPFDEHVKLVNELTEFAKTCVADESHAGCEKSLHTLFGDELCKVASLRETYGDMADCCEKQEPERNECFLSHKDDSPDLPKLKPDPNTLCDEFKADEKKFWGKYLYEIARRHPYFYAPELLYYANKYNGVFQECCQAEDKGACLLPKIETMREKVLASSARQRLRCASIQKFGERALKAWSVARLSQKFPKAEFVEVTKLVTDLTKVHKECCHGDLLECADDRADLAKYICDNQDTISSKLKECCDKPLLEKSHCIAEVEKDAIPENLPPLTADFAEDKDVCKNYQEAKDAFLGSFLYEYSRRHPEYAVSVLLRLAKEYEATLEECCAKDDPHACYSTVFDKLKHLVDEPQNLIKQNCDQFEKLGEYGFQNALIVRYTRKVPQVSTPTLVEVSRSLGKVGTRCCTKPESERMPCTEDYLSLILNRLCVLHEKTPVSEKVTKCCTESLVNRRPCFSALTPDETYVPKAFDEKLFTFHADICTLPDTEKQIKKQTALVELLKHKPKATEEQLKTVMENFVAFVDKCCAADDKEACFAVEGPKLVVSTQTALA

- MRT [1]: 0.337 h
- Vd [3]: 0.044 L
- half-life [5]: 1.08 h
- pKd [20]: 4.97
- half-life [22]: 27 h
Compound: CCCCCCCCCCCC(=O)N[C@H](CC(=O)O)C(=O)N[C@@H](Cc1c[nH]cn1)C(=O)N[C@@H](CC(N)=O)C(=O)N[C@H]1CSCCCCCCSC[C@@H](C(N)=O)NC(=O)[C@@H](C)NC(=O)[C@H](CCC(N)=O)NC(=O)[C@@H]2CCCN2C1=O
- Activity [2]: Dose-dependent-effect
- Activity [4]: Active
- inhibition [6]: Active; No Further Enhancement In Antifibrotic Activity Was Observed At Concentrations Above 2 Î¼M
- Activity [7]: Active
- inhibition [8]: Active
- inhibition [9]: Active
- Activity [10]: Active
- inhibition [11]: Active
- inhibition [12]: Active
- Activity [13]: Active
- inhibition [14]: Active; No Additional Suppression Observed At Concentrations Above 5 Î¼M
- Activity [15]: Active
- inhibition [16]: Active
- inhibition [17]: Active; No Additional Suppression Observed At Concentrations Above 5 Î¼M
- inhibition [18]: Active; No Further Enhancement In Antifibrotic Activity Was Observed At Concentrations Above 2 Î¼M
- Activity [19]: Non-toxic
- inhibition [21]: Active
- inhibition [23]: Active
- inhibition [24]: Active
- Activity [25]: Active
